What all share (type): functional, cell-based
The test system of one test is A549. As to the kind of experiment: Antiproliferative activity against human A549 cells assessed as reduction in cell viability after 48 hrs by SRB assay. As to conditions: A549, 48 h.
For the next test, the system named is HeLa. Nature of the test: Antiproliferative activity against human HeLa cells assessed as reduction in cell viability after 48 hrs by SRB assay.
In another test the test system is DU-145. As to the kind of experiment: Antiproliferative activity against human DU145 cells assessed as reduction in cell viability after 48 hrs by SRB assay. As to conditions: DU-145, 48 h.

Data on 16 molecules can be found in ChEMBL document CHEMBL4385621, “Synthesis and in vitro cytotoxicity evaluation of β-carboline-combretastatin carboxamides as apoptosis inducing agents: DNA intercalation and topoisomerase-II inhibition” (Bioorg Med Chem, 2019).

For the molecule `COc1cc(/C(=C\c2cccc(F)c2)C(=O)NCc2cc3c([nH]c4ccccc43)c(-c3cc(OC)c(OC)c(OC)c3)n2)cc(OC)c1OC`, the IC50 in the test with A549 came to 2.08 µM; with HeLa, 42.2 µM; with DU-145 it was 15.8 µM.
In the case of `COc1ccc(/C=C(/C(=O)NCc2cc3c([nH]c4ccccc43)c(-c3cccc(F)c3)n2)c2cc(OC)c(OC)c(OC)c2)cc1OC(C)=O`, the IC50 in the test with A549 came to 3.07 µM; with HeLa, 13.6 µM; in the test on DU-145 it was 2.46 µM.
Turning to `COc1cc(/C=C(/C(=O)NCc2cc3c([nH]c4ccccc43)c(-c3cc(OC)c(OC)c(OC)c3)n2)c2cc(OC)c(OC)c(OC)c2)cc(OC)c1`, the IC50 in the test on A549 was found to be 3.38 µM; with HeLa, 29.9 µM; in the test on DU-145, 11.1 µM.
Regarding `COc1ccc(/C=C(/C(=O)NCc2cc3c([nH]c4ccccc43)c(-c3cc(OC)c(OC)c(OC)c3)n2)c2cc(OC)c(OC)c(OC)c2)cc1`, the IC50 with A549 amounted to 2.23 µM; in the test on HeLa, 19.5 µM; with DU-145, 6.67 µM.
`CCOc1ccccc1/C=C(/C(=O)NCc1cc2c([nH]c3ccccc32)c(-c2cc(OC)c(OC)c(OC)c2)n1)c1cc(OC)c(OC)c(OC)c1`: the IC50 is 18.4 µM in the test with A549, 18.2 µM with HeLa and 16.1 µM in the test on DU-145.
Consider `COc1cc(/C=C(/C(=O)NCc2cc3c([nH]c4ccccc43)c(-c3cccc(F)c3)n2)c2cc(OC)c(OC)c(OC)c2)cc(OC)c1`, for which the IC50 was 1.99 µM in the test with A549, 17.2 µM in the test with HeLa and 2.57 µM in the test with DU-145.
In the case of `CCOc1ccccc1/C=C(/C(=O)NCc1cc2c([nH]c3ccccc32)c(-c2cccc(F)c2)n1)c1cc(OC)c(OC)c(OC)c1`, the IC50 with A549 came out at 2.95 µM; in the test on HeLa, 14 µM; with DU-145, 2.18 µM.
Consider `COc1cc(/C=C(/C(=O)NCc2cc3c([nH]c4ccccc43)c(-c3cccc(F)c3)n2)c2cc(OC)c(OC)c(OC)c2)ccc1OC(C)=O`, for which the IC50 amounted to 14.2 µM in the test on A549, 26.1 µM in the test with HeLa and 11.7 µM with DU-145.
Turning to `COc1ccc(/C=C(/C(=O)NCc2cc3c([nH]c4ccccc43)c(-c3cc(OC)c(OC)c(OC)c3)n2)c2cc(OC)c(OC)c(OC)c2)cc1O`, the IC50 with A549 turned out to be 7.55 µM; with HeLa, 23.1 µM; in the test with DU-145, 7.88 µM.
`COc1ccc(-c2nc(CNC(=O)/C(=C/c3ccc(OC)c(O)c3)c3cc(OC)c(OC)c(OC)c3)cc3c2[nH]c2ccccc23)cc1`: the figures for the IC50 in the test on A549, with HeLa and with DU-145 were 3.09 µM, 18 µM and 10.2 µM, respectively.
Consider `COc1cc(/C=C(/C(=O)NCc2cc3c([nH]c4ccccc43)c(-c3cc(OC)c(OC)c(OC)c3)n2)c2cc(OC)c(OC)c(OC)c2)cc(OC)c1OC`, for which the IC50 in the test with A549 came out at 10.6 µM; in the test on HeLa, 36.4 µM; in the test with DU-145, 15.7 µM.
For the molecule `COc1cc(/C(=C\c2cccc(F)c2)C(=O)NCc2cc3c([nH]c4ccccc43)c(-c3cccc(F)c3)n2)cc(OC)c1OC`, the concentration for half-maximal inhibition (IC50) is 2.88 µM with A549, 19.7 µM in the test on HeLa and 3.89 µM with DU-145.
With `COc1ccc(/C=C(/C(=O)NCc2cc3c([nH]c4ccccc43)c(-c3cccc(F)c3)n2)c2cc(OC)c(OC)c(OC)c2)cc1`, the IC50 with A549 came out at 12.9 µM; with HeLa it was 39.5 µM; in the test on DU-145, 12.6 µM.
The matching figures for `COc1ccc(-c2nc(CNC(=O)/C(=C/c3ccc(Cl)cc3)c3cc(OC)c(OC)c(OC)c3)cc3c2[nH]c2ccccc23)cc1`: 9.65 µM, 37.5 µM and 13 µM.
The matching figures for `COc1cc(/C=C(/C(=O)NCc2cc3c([nH]c4ccccc43)c(-c3cc(OC)c(OC)c(OC)c3)n2)c2cc(OC)c(OC)c(OC)c2)ccc1OC(C)=O`: 7.08 µM, 50.1 µM and 8.35 µM.
Consider `COc1cc(/C(=C\c2ccc(Cl)cc2)C(=O)NCc2cc3c([nH]c4ccccc43)c(-c3cccc(F)c3)n2)cc(OC)c1OC`, for which the IC50 worked out at 22.2 µM in the test on A549, 31.3 µM in the test on HeLa and 8.44 µM in the test on DU-145.
